Data reported in ChEMBL document CHEMBL1142710, “3D-QSAR comparative molecular field analysis on opioid receptor antagonists: pooling data from different studies” (J Med Chem, 2005).

Tests used:
Mu-type opioid receptor [1] = molecular target: T1, Mu-type opioid receptor (Rattus norvegicus, UniProt P33535); assay: Binding affinity against Opioid receptor mu 1 from rat brain membranes using [3H]DAMGO
[2] = molecular target: T2, Delta-type opioid receptor (Rattus norvegicus, UniProt P33533); assay: Binding affinity against Opioid receptor delta 1 from rat brain membranes using [3H]DADLE
[3] = molecular target: T3, Kappa-type opioid receptor (Cavia porcellus, UniProt P41144); assay: Binding affinity against Opioid receptor kappa 1 from guinea pig brain membranes using [3H]U-69593
Mu-type opioid receptor [4] = molecular target: T1, Mu-type opioid receptor; assay: Affinity against opioid receptor mu 1 in rat brain membranes determined in a competitive binding assay using [3H]DAMGO as competitive ligand (Compound 62); assay type: cell membranes
[5] = molecular target: T2, Delta-type opioid receptor; assay: Affinity against opioid receptor delta 1 in rat brain membranes determined in a competitive binding assay using [3H]DADLE as competitive ligand (Compound 62); assay type: cell membranes
[6] = molecular target: T3, Kappa-type opioid receptor; assay: Affinity against opioid receptor kappa 1 in guinea pig brain membranes determined in a competitive binding assay using [3H]U-69593 as competitive ligand (Compound 62); assay type: cell membranes, Membrane

SMILES	Ki (Mu-type opioid receptor [1]) [nM]	Ki [2] [nM]	Ki [3] [nM]	Ki (Mu-type opioid receptor [4]) [nM]	Ki [5] [nM]	Ki [6] [nM]
Cc1ncc2c(n1)[C@@H]1Oc3c(O)ccc4c3C13CCN(CC1CC1)C(C4)[C@]3(O)C2 (some centres undefined)	6.03	22.9	25.1	–	–	–
Oc1ccc2c3c1O[C@H]1c4ncc(-c5ccccc5)cc4C[C@@]4(O)C(C2)N(CC2CC2)CCC314 (some centres undefined)	13.5	0.871	17.8	–	–	–
CN1CCC23c4c5ccc(O)c4O[C@H]2c2ncc(-c4ccc(Br)cc4)cc2C[C@@]3(O)C1C5 (some centres undefined)	195	3.98	437	–	–	–
COc1ccc2c(c1O)[C@]13CCN(CC4CC4)C(C2)[C@@H]1CC1c2ccccc2NC1C3 (some centres undefined)	13200	7.08	7940	–	–	–
CCCCC1c2c([nH]c3ccccc23)[C@H]2Oc3c(O)ccc4c3[C@@]23CCN(C)[C@H](C4)[C@H]13 (some centres undefined)	1100	21.9	724	–	–	–
O=C(Oc1cccc2[nH]c3c(c12)C[C@@]1(O)[C@H]2Cc4ccc(O)c5c4[C@@]1(CCN2CC1CC1)[C@@H]3O5)c1ccccc1	363	14.8	537	–	–	–
O=C(Oc1ccc2c3c([nH]c2c1)[C@H]1Oc2c(O)ccc4c2[C@@]12CCN(CC1CC1)[C@H](C4)[C@]2(O)C3)c1ccccc1	676	6.76	468	–	–	–
Oc1ccc2c3c1O[C@@H]1c4[nH]c5ccc(Oc6ccccc6)cc5c4C[C@@]4(O)[C@@H](C2)N(CC2CC2)CC[C@]314	295	17.8	75.9	–	–	–
C=C(C)CN1CC[C@]23c4c5ccc(O)c4O[C@@H]2c2[nH]c4ccccc4c2C[C@@]3(O)[C@H]1C5	7940	4.68	3800	7940	4.68	3800
Oc1ccc2c3c1O[C@@H]1c4[nH]c5c(Oc6ccccc6)cccc5c4C[C@@]4(O)[C@@H](C2)N(CC2CC2)CC[C@]314	33.9	0.708	33.9	–	–	–
CCCCN1CC[C@]23c4c5ccc(O)c4O[C@@H]2c2[nH]c4ccccc4c2C[C@@]3(O)[C@H]1C5	1290	8.32	891	–	–	–
CO[C@@]12CCC(=O)CC13CCN(CC1CC1)C2Cc1cccc(OC/C=C/c2ccccc2)c13 (some centres undefined)	28.2	832	363	–	–	–
Oc1ccc2c3c1O[C@H]1c4ncc(-c5ccc(Cl)cc5)cc4C[C@H]4C(C2)N(CC2CC2)CCC314 (some centres undefined)	61.7	2.57	6.03	–	–	–
C=C(N)NCCCC(=O)NC1CC2CC(c3cccc(O)c3)(C1)C(C)CN2CCCc1ccccc1 (centres undefined)	87.1	1740	13.2	–	–	–
O=C(Oc1ccc2[nH]c3c(c2c1)C[C@@]1(O)[C@H]2Cc4ccc(O)c5c4[C@@]1(CCN2CC1CC1)[C@@H]3O5)c1ccccc1	81.3	4.37	81.3	–	–	–
CO[C@@]12CCC(=O)CC13CCN(CC1CC1)C2Cc1cccc(OCc2ccccc2)c13 (some centres undefined)	11.5	214	56.2	–	–	–

SMILES	Ki (Mu-type opioid receptor [1]) [nM]	Ki [2] [nM]	Ki [3] [nM]	Ki (Mu-type opioid receptor [4]) [nM]	Ki [5] [nM]	Ki [6] [nM]
Cc1nc(-c2ccccc2)c2c(n1)[C@@H]1Oc3c(O)ccc4c3C13CCN(CC1CC1)C(C4)[C@]3(O)C2 (some centres undefined)	251	324	562	–	–	–
Oc1ccc2c3c1O[C@@H]1c4[nH]c5cc(Oc6ccccc6)ccc5c4C[C@@]4(O)[C@@H](C2)N(CC2CC2)CC[C@]314	234	6.46	234	–	–	–
C=C(C)CN1CCC23c4c5ccc(O)c4O[C@H]2c2oc4ccccc4c2C[C@@]3(O)C1C5 (some centres undefined)	1290	8.13	575	–	–	–
C=C(C)CN1CCC23c4c5ccc(O)c4O[C@H]2c2[nH]ncc2C[C@@]3(O)C1C5 (some centres undefined)	141	39.8	38	–	–	–
CCO[C@@]12Cc3c([nH]c4ccccc34)[C@]3(C)Oc4c(O)ccc5c4C31CCN(CC1CC1)[C@@H]2C5	38.9	0.794	58.9	–	–	–
C=CCN1CCC23c4c5ccc(O)c4O[C@@]2(C)c2[nH]c4ccccc4c2C[C@@]3(OCC)C1C5 (some centres undefined)	661	10.7	759	–	–	–
Oc1ccc2c3c1O[C@H]1c4nc(-c5ccccc5)ccc4C[C@@]4(O)C(C2)N(CC2CC2)CCC314 (some centres undefined)	11	1.78	18.2	–	–	–
Oc1ccc2c3c1O[C@@H]1c4[nH]c5c(-c6ccccc6)cccc5c4C[C@@]4(O)[C@@H](C2)N(CC2CC2)CC[C@]314	123	2.09	309	–	–	–
CCN1CC[C@]23c4c5ccc(O)c4O[C@@H]2c2[nH]c4ccccc4c2C[C@@]3(O)[C@H]1C5	2510	5.01	3020	–	–	–
CN1CCC23c4c5ccc(O)c4O[C@H]2c2ncc(-c4ccc(Br)cc4)cc2C[C@H]3C1C5 (some centres undefined)	200	5.01	91.2	–	–	–
CCCN1CC[C@]23c4c5ccc(O)c4O[C@@H]2c2[nH]c4ccccc4c2C[C@@]3(O)[C@H]1C5	708	2	380	–	–	–
CC(C)=CCN1CC[C@]23c4c5ccc(O)c4O[C@@H]2c2[nH]c4ccccc4c2C[C@@]3(O)[C@H]1C5	2820	25.1	3240	–	–	–
CCCCOc1cccc2c1[C@]13CCN(CC4CC4)[C@H](C2)[C@]1(OC)CCC(=O)C3	13.8	759	263	–	–	–
Oc1ccc2c3c1O[C@@H]1c4[nH]c5ccc(-c6ccccc6)cc5c4C[C@@]4(O)[C@@H](C2)N(CC2CC2)CC[C@]314	166	15.8	355	–	–	–
C=CCN1CCC23c4c5ccc(O)c4O[C@H]2c2ncc(-c4ccc(Cl)cc4)cc2C[C@@]3(O)C1C5 (some centres undefined)	468	8.13	75.9	–	–	–
CN1CCC23c4c5ccc(O)c4O[C@H]2c2ncc(-c4ccc(Cl)c(Cl)c4)cc2C[C@H]3C1C5 (some centres undefined)	93.3	3.72	275	–	–	–
